In patent US7153855B2, “Pyrazolopyridinyl pyrimidine therapeutic compounds” (SmithKline Beecham Corporation, priority 2001, dated 2006):
pIC50: −log10 of the molar value. Read-outs that look alike come from different tables or passages of the source.

Tested on: HSV-1
Assay: HSV-1 infection of Vero 76 cells, viral DNA detected by hybridization capture (chemiluminescence)
Type: cell-based
From the text: In the following example, “MEM” means Minimal Essential Media; “FBS” means Fetal Bovine Serum; “NP40” and “Igepal” are detergents; “MOI” means Multiplicity of Infection; “NaOH” means sodium hydroxide; “MgCl2” means magnesium chloride; “dATP” means deoxyadenosine 5′ triphosphate; “dUTP” means deoxyuridine 5′ triphosphate; “dCTP” means dexoxycytidine 5′ triphosphate; “dGTP” means deoxyguanosine 5′ triphosphate; “GuSCN” means Guanidinium thiocyanate; “EDTA” means ethylenediamine tetraacetic acid; “TE” means Tris-EDTA; “SCC” means sodium chloride/sodium citrate; “APE” means a solution of ammonia acetate, ammonia phosphate, EDTA; “PBS” means phosphate buffered saline; and “HRP” means horseradish peroxidase.
Vero 76 cells were maintained in MEM with Earle's salts, L-glutamine, 8% FBS (Hyclone, A-1111-L) and 100 units/mL Penicillin-100 μg/mL Streptomycin. For assay conditions, FBS was reduced to 2%. Cells are seeded into 96-well tissue culture plates at a density of 5×10^4 cells/well after being incubated for 45 min at 37° C. in the presence of HSV-1 or HSV-2 (MOI=0.001). Test compounds are added to the wells and the plates are incubated at 37° C. for 40–48 hours. Cell lysates are prepared as follows: media was removed and replaced with 150 μL/well 0.2 N NaOH with 1% Igepal CA 630 or NP-40. Plates were incubated up to 14 days at room temperature in a humidified chamber to prevent evaporation.
For the detection probe, a gel-purified, digoxigenin-labeled, 710-bp PCR fragment of the HSV UL-15 sequence was utilized. PCR conditions included 0.5 μM primers, 180 μM dTTP, 20 μM dUTP-digoxigenin (Boehringer Mannheim 1558706), 200 μM each of dATP, dCTP, and dGTP, 1×PCR Buffer II (Perkin Elmer), 2.5 mM MgCl2, 0.025 units/μL of AmpliTaq Gold polymerase (Perkin Elmer), and 5 ng of gel-purified HSV DNA per 100 μL Extension conditions were 10 min at 95° C., followed by 30 cycles of 95° C. for 1 min, 55° C. for 30 sec, and 72° C. for 2 min. The amplification was completed with a 10-min incubation at 72° C. Primers were selected to amplify a 728 bp probe spanning a section of the HSV1 UL15 open reading frame (nucleotides 249–977). Single-stranded transcripts were purified with Promega M13 Wizard kits. The final product was mixed 1:1 with a mixture of 6 M GuSCN, 100 mM EDTA and 200 μg/mL herring sperm DNA and stored at 4° C.
The capture DNA plasmid (HSV UL13 region in pUC) was linearized by cutting with Xba I, denatured for 15 min at 95° C. and diluted immediately into Reacti-Bind DNA Coating Solution (Pierce, 17250, diluted 1:1 with TE buffer, pH 8) at 1 ng/μL 75 μL/well were added to Corning (#3922 or 9690) white 96-well plates and incubated at room temperature for at least 4 hrs before washing twice with 300 μL/well 0.2×SSC/0.05% Tween-20 (SSC/T buffer). The plates were then incubated overnight at room temperature with 150 μL/well 0.2 N NaOH, 1% IGEPAL and 10 μg/mL herring sperm DNA.
Twenty-seven (27) μL of cell lysate was combined with 45 μL of hybridization solution (final concentration: 3M GuSCN, 50 mM EDTA, 100 μg/ml salmon sperm DNA, 5×Denhardt's solution, 0.25×APE, and 5 ng of the digoxigenin-labeled detection probe). APE is 1.5 M NH4-acetate, 0.15 M NH4H2 phosphate, and 5 mM EDTA adjusted to pH 6.0. Mineral oil (50 μL) was added to prevent evaporation. The hybridization plates were incubated at 95° C. for 10 minutes to denature the DNA, then incubated at 42° C. overnight. The wells were washed 6× with 300 μL/well SSC/T buffer then incubated with 75 μL/well anti-digoxigenin-HRP-conjugated antibody (Boehringer Mannheim 1207733, 1:5000 in TE) for 30 min at room temperature. The wells were washed 6× with 300 μL/well with PBS/0.05% Tween-20 before 75 μL/well SuperSignal LBA substrate (Pierce) was added. The plates were incubated at room temperature for 30 minutes and chemiluminescence was measured in a Wallac Victor reader.
The following results were obtained for HSV-1.

[1] = Human alphaherpesvirus 1, HSV-1 in Vero 76 cells, MOI=0.001, compounds incubated 40–48 hours at 37° C., read-out: IC50

With `Clc1cccc(-c2nn3c(N4CCOCC4)cccc3c2-c2ccnc(NC3CCCC3)n2)c1` [Example 103, 4-[2-(3-Chlorophenyl)-7-(4-morpholinyl)pyrazolo[1,5-a]pyridin-3-yl]-N-cyclopentyl-2-pyrimidinamine] the pIC50 [1] was 6.30.
`FC(F)(F)c1cccc(-c2nn3c(NC4CCCC4)cccc3c2-c2ccnc(NC3CCCC3)n2)c1` [Example 98, N-Cyclopentyl-3-[2-(cyclopentylamino)-4-pyrimidinyl]-2-[3-(trifluoromethyl)phenyl]pyrazolo[1,5-a]pyridin-7-amine] was tested, and the pIC50 [1] was 6.52.
With `CS(=O)(=O)Nc1cccc(-c2nn3c(NC4CCCC4)cccc3c2-c2ccnc(NC3CCCC3)n2)c1` [Example 36, N-(3-{7-(Cyclopentylamino)-3-[2-(cyclopentylamino)-4-pyrimidinyl]-pyrazolo[1,5-a]pyridin-2-yl}phenyl)methanesulfonamide] the pIC50 [1] was 5.52.
Molecule `Cc1cccc(-c2nn3c(NC4CCCC4)cccc3c2-c2ccnc(NC3CCCC3)n2)c1` [Example 46, N-Cyclopentyl-3-[2-(cyclopentylamino)-4-pyrimidinyl]-2-(3-methylphenyl)pyrazolo[1,5-a]pyridin-7-amine] has a pIC50 [1] of 6.70.
`COc1cccc(-c2nn3c(N(C)C)cccc3c2-c2ccnc(NC3CCCC3)n2)c1` [Example 53, 3-[2-(Cyclopentylamino)-4-pyrimidinyl]-2-(3-methoxyphenyl)-N,N-dimethylpyrazolo[1,5-a]pyridin-7-amine] was tested, and the pIC50 [1] was 5.96.
Work on `c1cc(NC2CCCC2)n2nc(-c3ccc(OCC4CC4)cc3)c(-c3ccnc(NC4CCCC4)n3)c2c1` [Example 11, N-Cyclopentyl-3-[2-(cyclopentylamino)-4-pyrimidinyl]-2-[4-(cyclopropyl-methoxy)phenyl]pyrazolo[1,5-a]pyridin-7-amine] yielded a pIC50 [1] of 6.52.
In the case of `N#Cc1cccc(-c2nn3c(NC4CCCC4)cccc3c2-c2ccnc(NC3CCCC3)n2)c1` [Example 39, 3-{7-(Cyclopentylamino)-3-[2-(cyclopentylamino)-4-pyrimidinyl]pyrazolo[1,5-a]pyridin-2-yl}benzonitrile], the pIC50 [1] was 6.30.
With `COc1ccc(-c2nn3c(NCCCCN)cccc3c2-c2ccnc(NC3CCCC3)n2)cc1` [Example 81, N-[3-[2-(Cyclopentylamino)pyrimidin-4-yl]-2-(4-methoxyphenyl)-pyrazolo[1,5-a]pyridin-7-yl]butane-1,4-diamine] the pIC50 [1] was 6.22.
In the case of `C=CCOc1ccc(-c2nn3c(NC4CCCC4)cccc3c2-c2ccnc(NC3CCCC3)n2)cc1` [Example 7, 2-[4-(Allyloxy)phenyl]-N-cyclopentyl-3-[2-(cyclopentylamino)-4-pyrimidinyl]pyrazolo[1,5-a]pyridin-7-amine], the pIC50 [1] was 6.82.
Work on `CCCCNc1nccc(-c2c(-c3ccc(NC4CCCCC4)cc3)nn3c(NCCCC)cccc23)n1` [Example 17, N-Butyl-3-[2-(butylamino)-4-pyrimidinyl]-2-[4-(cyclohexylamino)phenyl]-pyrazolo[1,5-a]pyridin-7-amine] yielded a pIC50 [1] of 5.82.
With `COc1ccc(-c2nn3c(NC4CCCC4)cccc3c2-c2ccnc(NC3CC3)n2)cc1` [Example 58, N-Cyclopentyl-3-[2-(cyclopropylamino)-4-pyrimidinyl]-2-(4-methoxyphenyl)pyrazolo[1,5-a]pyridin-7-amine] the pIC50 [1] was 6.40.
With `COCCNc1cccc2c(-c3ccnc(NC4CCCC4)n3)c(-c3cccc(F)c3)nn12` [Example 106, 3-[2-(Cyclopentylamino)-4-pyrimidinyl]-2-(3-fluorophenyl)-N-(2-methoxyethyl)pyrazolo[1,5-a]pyridin-7-amine] the pIC50 [1] was 6.70.
`COc1ccc(-c2nn3c(N4CCOCC4)cccc3c2-c2ccnc(NC3CC3)n2)cc1` [Example 63, N-Cyclopropyl-4-[2-(4-methoxyphenyl)-7-(4-morpholinyl)pyrazolo[1,5-a]pyridin-3-yl]-2-pyrimidinamine] showed a pIC50 [1] of 5.92.
`CCCCNc1nccc(-c2c(-c3ccc(N4CCOCC4)cc3)nn3c(NCCCC)cccc23)n1` [Example 75, N-Butyl-3-[2-(butylamino)pyrimidin-4-yl]-2-(4-morpholin-4-ylphenyl)pyrazolo[1,5-a]pyridin-7-amine] showed a pIC50 [1] of 4.57.
In the case of `Clc1cccc(-c2nn3c(NC4CCCC4)cccc3c2-c2ccnc(NC3CC3)n2)c1` [Example 100, 2-(3-Chlorophenyl)-N-cyclopentyl-3-[2-(cyclopropylamino)-4-pyrimidinyl]pyrazolo[1,5-a]pyridin-7-amine], the pIC50 [1] was 6.52.
`Brc1cccc(-c2nn3c(NC4CCCC4)cccc3c2-c2ccnc(NC3CCCC3)n2)c1` [Example 25, 2-(3-Bromophenyl)-N-cyclopentyl-3-[2-(cyclopentylamino)-4-pyrimidinyl]pyrazolo[1,5-a]pyridin-7-amine] was tested, and the pIC50 [1] was 6.70.
Molecule `COc1ccc(-c2nn3c(N4CCCC4)cccc3c2-c2ccnc(NC3CCCC3)n2)cc1` [Example 2, N-Cyclopentyl-4-[2-(4-methoxyphenyl)-7-(1-pyrrolidinyl)pyrazolo[1,5-a]pyridin-3-yl]-2-pyrimidinamine] has a pIC50 [1] of 6.22.
For `Cc1cccc(-c2nn3c(NC4CCCC4)cccc3c2-c2nc(NC3CCCC3)nc(C)c2C)c1` [Example 48, N-cyclopentyl-3-[2-(cyclopentylamino)-5,6-dimethyl-4-pyrimidinyl]-2-(3-methylphenyl)pyrazolo[1,5-a]pyridin-7-amine], the pIC50 [1] was under 4.40.
For `Oc1ccc(-c2nn3c(NC4CC4)cccc3c2-c2ccnc(NC3CC3)n2)cc1` [Example 69, 4-{7-(Cyclopropylamino)-3-[2-(cyclopropylamino)-4-pyrimidinyl]-pyrazolo[1,5-a]pyridin-2-yl}phenol], the pIC50 [1] was 5.64.
`CCOP(=O)(NCCCCNc1cccc2c(-c3ccnc(NC4CCCC4)n3)c(-c3ccc(OC)cc3)nn12)OCC` [Example 89, Diethyl 4-{[3-[2-(cyclopentylamino)pyrimidin-4-yl]-2-(4-methoxyphenyl)pyrazolo[1,5-a]pyridin-7-yl]amino}butylamidophosphate] was tested, and the pIC50 (Human alphaherpesvirus 1, Vero 76) was 6.10.
`c1cc(NC2CCCC2)n2nc(-c3ccc(OCC4CCC4)cc3)c(-c3ccnc(NC4CCCC4)n3)c2c1` [Example 12, 2-[4-(Cyclobutylmethoxy)phenyl]-N-cyclopentyl-3-[2-(cyclopentylamino)-4-pyrimidinyl]pyrazolo[1,5-a]pyridin-7-amine] was tested, and the pIC50 [1] was 5.70.
For `COc1ccc(-c2nn3c(N)cccc3c2-c2ccnc(NC3CCCC3)n2)cc1` [Example 83, 3-[2-(Cyclopentylamino)pyrimidin-4-yl]-2-(4-methoxyphenyl)pyrazolo-[1,5-a]pyridin-7-amine], the pIC50 [1] was 6.15.
Molecule `COCCNc1cccc2c(-c3ccnc(NC4CCCC4)n3)c(-c3ccc(OC)cc3)nn12` [Example 62, 3-[2-(Cyclopentylamino)-4-pyrimidinyl]-N-(2-methoxyethyl)-2-(4-methoxyphenyl)pyrazolo[1,5-a]pyridin-7-amine] has a pIC50 [1] of 7.00.
`CCCCNc1nccc(-c2c(-c3ccc(N(C)C)cc3)nn3c(NCCCC)cccc23)n1` [Example 23, N-Butyl-3-[2-(butylamino)-4-pyrimidinyl]-2-[4-(dimethylamino)phenyl]-pyrazolo[1,5-a]pyridin-7-amine] was tested, and the pIC50 [1] was 5.70.
